Results taken from patent US9856252B2, “2-(hetero)aryl-benzimidazole and imidazopyridine derivatives as inhibitors of asparagime emethyl transferase” (Cancer Therapeutics CRC Pty Ltd, priority 2013, dated 2018).

The compounds below were run against Full-length PRMT5 enzyme (NCBI Reference sequence NP_006100.2) co-expressed with His6-MEP50 (Homo sapiens (Human), UniProt O14744) (assay: PRMT5 Biochemical Assay). Conditions: histone H4 derived peptide substrate 200 nM, 1 μM S-Adenosyl methionine, 4 hours at 37° C., Transcreener EPIGEN fluorescence polarisation.
Sequence of Full-length PRMT5 enzyme (NCBI Reference sequence NP_006100.2) co-expressed with His6-MEP50 (O14744 whole entry): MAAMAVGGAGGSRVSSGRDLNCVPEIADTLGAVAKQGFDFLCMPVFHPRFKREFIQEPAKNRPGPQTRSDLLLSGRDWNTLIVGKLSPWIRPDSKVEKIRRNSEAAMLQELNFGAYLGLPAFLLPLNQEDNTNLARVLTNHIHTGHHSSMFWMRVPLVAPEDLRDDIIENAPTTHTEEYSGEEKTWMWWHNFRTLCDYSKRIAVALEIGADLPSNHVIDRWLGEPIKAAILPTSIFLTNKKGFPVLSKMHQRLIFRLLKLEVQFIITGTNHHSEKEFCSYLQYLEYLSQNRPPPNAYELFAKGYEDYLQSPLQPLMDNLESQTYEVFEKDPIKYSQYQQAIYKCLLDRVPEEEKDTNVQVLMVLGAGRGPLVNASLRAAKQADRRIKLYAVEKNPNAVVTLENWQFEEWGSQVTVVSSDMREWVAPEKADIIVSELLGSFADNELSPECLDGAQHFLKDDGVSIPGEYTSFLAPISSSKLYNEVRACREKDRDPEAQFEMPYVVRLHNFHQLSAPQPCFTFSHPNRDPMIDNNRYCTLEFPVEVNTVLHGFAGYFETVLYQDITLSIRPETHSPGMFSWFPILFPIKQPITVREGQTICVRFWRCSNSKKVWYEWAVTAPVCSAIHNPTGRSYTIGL
Sequence of Full-length PRMT5 enzyme (NCBI Reference sequence NP_006100.2) co-expressed with His6-MEP50 (Q9BQA1 whole entry partner): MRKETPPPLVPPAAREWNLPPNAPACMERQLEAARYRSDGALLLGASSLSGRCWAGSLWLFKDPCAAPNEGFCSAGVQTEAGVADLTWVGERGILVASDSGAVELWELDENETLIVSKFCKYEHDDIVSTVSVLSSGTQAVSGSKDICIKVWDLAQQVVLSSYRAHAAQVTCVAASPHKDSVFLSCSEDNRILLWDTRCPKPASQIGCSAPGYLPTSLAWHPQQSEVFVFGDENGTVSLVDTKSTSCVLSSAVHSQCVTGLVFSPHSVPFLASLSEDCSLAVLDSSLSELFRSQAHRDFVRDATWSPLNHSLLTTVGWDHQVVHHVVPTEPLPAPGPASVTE
Experimental: Compounds of the invention may be tested for in vitro activity in the following assay: A histone H4 derived peptide is used as substrate (amino acid sequence: […]N H2). Full-length PRMT5 enzyme (NCBI Reference sequence NP_006100.2) was co-expressed with His6-MEP50 in insect cells and purified via Nickel immobilized metal affinity and gel filtration chromatography (“the enzyme”).
The 6 μL assay reactions are run in Greiner brand black 384-well low volume plates. All reactions contained assay buffer (phosphate buffered saline, 0.01% (v/v) Tween-20, 0.01% (w/v) albumin from chicken egg white, 1 mM dithiothreitol, 200 nM peptide substrate, 1 μM S-Adenosyl methionine, and 15 ng/reaction enzyme, with the enzyme being omitted from negative control reactions. Compounds were added in a volume of 100 nL from dilution series prepared in DMSO, positive and negative control reactions receiving the same volume DMSO without compound. The plates were sealed with adhesive seals and incubated for 4 hours at 37° C. Reaction progress was measured using the Transcreener™ EPIGEN methyltransferase assay (BellBrook Labs, Madison, Wis.) as recommended by the manufacturer. To each reaction 2 μL detection mix were added, containing coupling enzymes, fluorescence polarisation tracer, and AMP antibody. Plates were incubated for 90 minutes before being read on a PerkinElmer EnVision™ plate reader in fluorescence polarisation mode.

SMILES	IC50
c1ccc(OCc2ccc(-c3nc4cccnc4[nH]3)cc2)cc1 [Example 1, 2-(4-(phenoxymethyl)phenyl)-3H-imidazo[4,5-b]pyridine]	1490 nM
O=C(Nc1ccc(-c2nc3cccnc3[nH]2)cc1)c1ccccc1 [Example 3, N-(4-(3H-imidazo[4,5-b]pyridin-2-yl)phenyl)benzamide]	3970 nM
CC(=O)N1CCC(c2cnc3[nH]c(-c4ccc(COc5ccccc5)cc4)nc3c2)CC1 [Example 10, 1-(4-(2-(4-(phenoxymethyl)phenyl)-3H-imidazo[4,5-b]pyridin-6-yl)piperidin-1-yl)ethanone]	375 nM
CN1CCC(c2cnc3[nH]c(-c4ccc(COc5ccccc5)cc4)nc3c2)CC1 [Example 11, 6-(1-methylpiperidin-4-yl)-2-(4-(phenoxymethyl)phenyl)-3H-imidazo[4,5-b]pyridine]	482 nM
CC(=O)N1CCC(c2cnc3[nH]c(-c4ccc(OCc5ccccc5)cc4)nc3c2)CC1 [Example 13, 1-(4-(2-(4-(Benzyloxy)phenyl)-3H-imidazo[4,5-b]pyridin-6-yl)piperidin-1-yl)ethanone]	339 nM
c1ccc(COc2ccc(-c3nc4ccc(Nc5cn[nH]c5)nc4[nH]3)cc2)cc1 [Example 20, 2-(4-(benzyloxy)phenyl)-N-(1H-pyrazol-4-yl)-3H-imidazo[4,5-b]pyridin-5-amine]	847 nM
O=C1CNCCN1c1ccc2nc(-c3ccc(OCc4ccccc4)cc3)[nH]c2n1 [Example 21, 1-(2-(4-(benzyloxy)phenyl)-3H-imidazo[4,5-b]pyridin-5-yl)piperazin-2-one]	774 nM
CC(=O)NCCNc1ccc2nc(-c3ccc(OCc4ccccc4)cc3)[nH]c2n1 [Example 22, N-(2-((2-(4-(benzyloxy)phenyl)-3H-imidazo[4,5-b]pyridin-5-yl)amino)ethyl)acetamide]	487 nM
c1ccc(COc2ccc(-c3nc4ccc(N5CCSCC5)nc4[nH]3)cc2)cc1 [Example 23, 4-(2-(4-(benzyloxy)phenyl)-3H-imidazo[4,5-b]pyridin-5-yl)thiomorpholine]	497 nM
[O-][S+]1CCN(c2ccc3nc(-c4ccc(OCc5ccccc5)cc4)[nH]c3n2)CC1 [Example 24, 4-(2-(4-(benzyloxy)phenyl)-3H-imidazo[4,5-b]pyridin-5-yl)thiomorpholine 1-oxide]	570 nM
O=S1(=O)CCN(c2ccc3nc(-c4ccc(OCc5ccccc5)cc4)[nH]c3n2)CC1 [Example 25, 4-(2-(4-(benzyloxy)phenyl)-3H-imidazo[4,5-b]pyridin-5-yl)thiomorpholine 1,1-dioxide]	619 nM
CN1CCN(c2ccc3nc(-c4ccc(OCc5ccccc5)cc4)[nH]c3n2)CC1 [Example 26, 2-(4-(benzyloxy)phenyl)-5-(4-methylpiperazin-1-yl)-3H-imidazo[4,5-b]pyridine]	132 nM
CCS(=O)(=O)N1CCN(c2ccc3nc(-c4ccc(OCc5ccccc5)cc4)[nH]c3n2)CC1 [Example 27, 2-(4-(benzyloxy)phenyl)-5-(4-(ethylsulfonyl)piperazin-1-yl)-3H-imidazo[4,5-b]pyridine]	148 nM
CC(C)(C)OC(=O)NCC1CCCN(c2ccc3nc(-c4ccc(OCc5ccccc5)cc4)[nH]c3n2)C1 (stereo not shown) [Example 28, tert-butyl ((1-(2-(4-(benzyloxy)phenyl)-3H-imidazo[4,5-b]pyridin-5-yl)piperidin-3-yl)methyl)carbamate]	1680 nM
CN(c1ccc2nc(-c3ccc(OCc4ccccc4)cc3)[nH]c2n1)C1CCCN(C(=O)OC(C)(C)C)C1 (stereo not shown) [Example 30, tert-butyl 3-((2-(4-(benzyloxy)phenyl)-3H-imidazo[4,5-b]pyridin-5-yl)(methyl)amino)piperidine-1-carboxylate]	2660 nM
CC(C)(C)OC(=O)N1CCC(CNc2ccc3nc(-c4ccc(OCc5ccccc5)cc4)[nH]c3n2)CC1 [Example 31, tert-butyl 4-(((2-(4-(benzyloxy)phenyl)-3H-imidazo[4,5-b]pyridin-5-yl)amino)methyl)piperidine-1-carboxylate]	1240 nM
